Experimental data: ChEMBL document CHEMBL1221366, “Pitucamycin: structural merger of a phenoxazinone with an epoxyquinone antibiotic” (J Nat Prod, 2010)
Active and inactive are the calls of the source. The calls are words filed in the database; no cut-off is given here.

How the values were obtained:
Pseudomonas aeruginosa = test: Antimicrobial activity against Pseudomonas aeruginosa SG137 B7 by agar diffusion assay; format: functional, organism-based
Enterococcus faecalis = test: Antimicrobial activity against vancomycin-resistant Enterococcus faecalis 1528 R10 by agar diffusion assay; format: functional, organism-based
Raji = test: Antiproliferative activity against human Raji cells assessed as inhibition of cell growth; format: functional
K562 = test: Antiproliferative activity against human K562 cells assessed as inhibition of cell growth; format: functional
HeLa = test: Cytotoxicity against human HeLa cells; format: functional
HepG2 = test: Antiproliferative activity against human HepG2 cells assessed as inhibition of cell growth; format: functional
[1] = test system: Sporobolomyces salmonicolor; test: Antimicrobial activity against Sporidiobolus salmonicolor 549 H4 by agar diffusion assay; format: functional, organism-based
THP-1 = test: Antiproliferative activity against human THP1 cells assessed as inhibition of cell growth; format: functional
Bacillus subtilis = test: Antimicrobial activity against Bacillus subtilis 6633 B1 by agar diffusion assay; format: functional, organism-based
Candida albicans = test: Antimicrobial activity against Candida albicans H8 by agar diffusion assay; format: functional, organism-based
MCF7 = test: Antiproliferative activity against human MCF7 cells assessed as inhibition of cell growth; format: functional
Escherichia coli = test: Antimicrobial activity against Escherichia coli 458 B4 by agar diffusion assay; format: functional, organism-based
Staphylococcus aureus [2] = test: Antimicrobial activity against Staphylococcus aureus 511 B3 by agar diffusion assay; format: functional, organism-based
Mycolicibacterium vaccae = test: Antimicrobial activity against Mycobacterium vaccae 10670 M4 by agar diffusion assay; format: functional, organism-based
[3] = Antiproliferative activity against HUVEC assessed as inhibition of cell growth; format: cell-based; conditions: human, HUVEC cells
HEK293 = test: Antiproliferative activity against human HEK293 cells assessed as inhibition of cell growth; format: functional
Staphylococcus aureus [4] = test: Antimicrobial activity against methicillin-resistant Staphylococcus aureus 134/93R9 by agar diffusion assay; format: functional, organism-based
Penicillium chrysogenum = test: Antimicrobial activity against Penicillium notatum JP36 P1 by agar diffusion assay; format: functional, organism-based

Compound | Activity (Pseudomonas aeruginosa) | Activity (Enterococcus faecalis) | GI50 (Raji) | GI50 (K562) | CC50 (HeLa) | GI50 (HepG2) | Activity [1] | GI50 (THP-1) | Activity (Bacillus subtilis) | Activity (Candida albicans) | GI50 (MCF7) | Activity (Escherichia coli) | Activity (Staphylococcus aureus [2]) | Activity (Mycolicibacterium vaccae) | GI50 [3] | GI50 (HEK293) | Activity (Staphylococcus aureus [4]) | Activity (Penicillium chrysogenum)
O=C(CO)Nc1cc2nc3cc(CO)ccc3oc-2cc1=O [CHANDRANANIMYCIN D] | inactive | inactive | 9.6 µM | 16.6 µM | 90.6 µM | 6.6 µM | inactive | 27.6 µM | inactive | inactive | 1300 nM | inactive | inactive | inactive | 5.3 µM | 10.3 µM | inactive | inactive
CC(=O)N[C@@H](CSc1c2nc3cc(C(=O)O)ccc3oc-2cc(=O)c1N)C(=O)O [GRIXAZONE B] | – | – | – | > 76.4 µM | > 120 µM | – | – | – | – | – | – | – | – | – | > 120 µM | – | – | –
NC(=O)C1=C(N)[C@@H](O)[C@H](O)[C@@H](Nc2cc3nc4cc(CO)ccc4oc-3cc2=O)C1=O [PITUCAMYCIN] | inactive | inactive | – | 27.6 µM | 74.8 µM | – | inactive | – | inactive | inactive | – | inactive | inactive | inactive | 36.6 µM | – | inactive | inactive
